Measurements as given in US7999011B2, “Method for cardioprotection and neuroprotection by intravenous administration of halogenated volatile anesthetics” (Baxter International Inc., priority 2002, dated 2011).

How the values were obtained:
[1] = blood/gas; cited from earlier work
[2] = Arterial blood gas analysis; format: in vivo, rabbit; conditions: for pH: arterial blood
Procedure: (§1) Male New Zealand white rabbits weighing between 2.5 and 3.0 kg were anesthetized with intravenous sodium pentobarbital (30 mg/kg). Additional doses of pentobarbital were titrated as required to assure that pedal and palpebral reflexes were absent throughout the experiment. A tracheotomy was performed through a ventral midline incision, and the trachea was cannulated. The rabbits were ventilated with positive pressure using an air-oxygen mixture (FiO2=0.33). […] Body temperature was maintained with a heating blanket. Heparin-filled catheters were inserted into the right carotid artery and the left jugular vein for measurement of arterial blood pressure and fluid or drug administration, respectively. Maintenance fluids consisted of 0.9% saline (15 ml/kg/h) that were continued for the duration of the experiment.
(§2) Baseline measurements of systemic hemodynamics, arterial blood gas tensions, and blood concentrations of anesthetic agent were performed 30 min after instrumentation was completed. Rabbits received 0.9% saline, drug lipid vehicle (10 ml/h), or intravenous volatile anesthetic (10 ml/h) for 30 min. Infusions were discontinued 30 min prior to coronary occlusion (memory period). Blood concentrations of anesthetic agents were performed at baseline, at the end of anesthetic infusion, and at the end of the memory period just before coronary occlusion). HVA concentrations in blood were determined by gas chromatographic (GC) analysis. All rabbits underwent a 30 min LAD occlusion followed by 3 h reperfusion.
(§3) Statistical analysis of data within and between groups was performed with analysis of variance (ANOVA) for repeated measures followed by Student-Newman-Keuls test. Changes between groups were considered statistically significant when the p value was less than 0.05. All data are expressed as mean±SEM.

[3] = Literature MAC values in rabbits and 1 MAC-equivalent blood concentration; format: in vivo; conditions: 37° C., rabbit; x=λn
Procedure: “Minimum alveolar concentration (MAC)”, as is known in the art, is the alveolar concentration of an anesthetic, administered by inhalation at a pressure of 1 atmosphere, that prevents movement in 50% of patients in response to a painful stimuli. The MAC is age-dependent; it may be affected by a patient's medical condition; and it may also be affected by other pharmaceutical agents that are administered to the patient. In the context of intravenous administration of HVAs, the term “MAC” or “MAC-equivalent” is intended to mean an intravenous dose which produces the same blood plasma concentration of an anesthetic agent as that attained by inhalational administration of a gaseous concentration of anesthetic which prevents such movement in 50% of patients.
Blood concentrations as measured by GC were converted to their MAC-equivalent values by calculations described below. Initially “n”, or the number of moles of HVA in 1 L of alveolar gas during exposure to 1.0 MAC of the HVA was calculated.
The number of moles of the HVA in 1 L at 37° C. at 1 MAC in rabbits was then used to determine the concentration of the HVA present in blood by using known blood/gas partition values (also known as λ). […] The value for “x” (or the equivalent blood concentration of the HVA at 1 MAC at 37° C. in rabbit) is then determined by the equation: x=λn

[4] = Systemic hemodynamics during infarct experiment; format: in vivo, rabbit
Procedure: as §1
A left thoracotomy was performed at the fourth intercostal space, and the heart was suspended in a pericardial cradle. A prominent branch of the left anterior descending coronary artery (LAD) was selected, and a silk ligature was placed around this artery approximately halfway between the base and apex for the production of coronary artery occlusion and reperfusion in myocardial infarct size experiments. Each rabbit was anticoagulated with 500 U of heparin immediately before LAD occlusion. Coronary artery occlusion was verified by the presence of epicardial cyanosis and regional dyskinesia in the ischemic zone, and reperfusion was confirmed by observing an epicardial hyperemic response. Hemodynamics were continuously recorded on a polygraph throughout experimentation. After the surgical preparation, 30 min of stabilization were allowed.
as §2, §3

End-tidal gas analysis = format: in vivo, rabbit; conditions: for EtHalogenated: end-tidal
Procedure: as §2, §3

[5] = i.v. emulsion 10 ml/h for 30 min, Baseline

For `FC(F)OC(F)C(F)(F)F` (stereo not drawn) [DES, desflurane], the “Partition Coefficient ("λ")” value [1] is given as 0.42, the PaCO2 ([2]; Baseline) is given as 29 ± 2 mmHg and the PaO2 ([2]; Baseline) is given as 158 ± 23 mmHg. It also gave a PaCO2 ([2]; Infusion) of 32 ± 3 mmHg, a PaO2 ([2]; Infusion) of 157 ± 17 mmHg and a PaCO2 ([2]; Ischemia 30 min) of 31 ± 3 mmHg. For the same compound, the PaO2 ([2]; Ischemia 30 min) was 136 ± 24 mmHg, the PaCO2 ([2]; Memory) was 34 ± 3 mmHg and the PaO2 ([2]; Memory) was 143 ± 17 mmHg. The PaCO2 ([2]; Reperfusion 1 h) was 30 ± 4 mmHg, the PaO2 ([2]; Reperfusion 1 h) was 141 ± 19 mmHg and the PaCO2 ([2]; Reperfusion 2 h) was 26 ± 3 mmHg. It also gave a PaO2 ([2]; Reperfusion 2 h) of 155 ± 18 mmHg, a PaCO2 ([2]; Reperfusion 3 h) of 30 ± 1 mmHg and a PaO2 ([2]; Reperfusion 3 h) of 165 ± 12 mmHg. It also gave a pH ([2]; Baseline) of 7.45 ± 0.02, a pH ([2]; Infusion) of 7.40 ± 0.02 and a pH ([2]; Ischemia 30 min) of 7.34 ± 0.01. For the same compound, the pH ([2]; Memory) was 7.36 ± 0.02, the pH ([2]; Reperfusion 1 h) was 7.37 ± 0.02 and the pH ([2]; Reperfusion 2 h) was 7.40 ± 0.01. For the same compound, the pH ([2]; Reperfusion 3 h) was 7.41 ± 0.01, the “1 MAC-Equivalent Blood Concentration at 1 MAC ("x")” value [3] was 1.38 mM and the MAP ([4]; Baseline) was 71 ± 8 mmHg. It also gave an HR ([4]; Infusion) of 253 ± 9 bpm, an MAP ([4]; Infusion) of 67 ± 9 mmHg and an RPP ([4]; Infusion) of 20.4 ± 2.8 bpm × mmHg × 10^3. For the same compound, the HR ([4]; Ischemia 30 min) was 228 ± 7 bpm, the MAP ([4]; Ischemia 30 min) was 53 ± 8 mmHg and the RPP ([4]; Ischemia 30 min) was 14.5 ± 2 bpm × mmHg × 10^3. The HR ([4]; Memory) was 231 ± 9 bpm, the MAP ([4]; Memory) was 58 ± 10 mmHg and the RPP ([4]; Memory) was 16.3 ± 3 bpm × mmHg × 10^3. The MAP ([4]; Memory, listed as desflurane) was “decrease in mean arterial pressure”, the HR ([4]; Reperfusion 1 h) was 201 ± 14 bpm and the MAP ([4]; Reperfusion 1 h) was 54 ± 7 mmHg. For the same compound, the RPP ([4]; Reperfusion 1 h) was 12.4 ± 0.4 bpm × mmHg × 10^3, the RPP ([4]; Reperfusion 1 h, listed as desflurane) was “decreased” and the HR ([4]; Reperfusion 2 h) was 216 ± 6 bpm. For the same compound, the MAP ([4]; Reperfusion 2 h) was 58 ± 8 mmHg, the RPP ([4]; Reperfusion 2 h) was 15 ± 2.1 bpm × mmHg × 10^3 and the HR ([4]; Reperfusion 3 h) was 219 ± 7 bpm. For the same compound, the MAP ([4]; Reperfusion 3 h) was 54 ± 5 mmHg, the RPP ([4]; Reperfusion 3 h) was 14.2 ± 1.4 bpm × mmHg × 10^3 and the HR [4, 5] was 261 ± 11 bpm. The EtCO2 (End-tidal gas analysis; Baseline) was 31 ± 2 mmHg, the EtCO2 (End-tidal gas analysis; Infusion) was 30 ± 2 mmHg and the EtCO2 (End-tidal gas analysis; Ischemia 30 min) was 26 ± 3 mmHg. For the same compound, the EtCO2 (End-tidal gas analysis; Memory) was 28 ± 3 mmHg, the EtCO2 (End-tidal gas analysis; Reperfusion 1 h) was 29 ± 4 mmHg and the EtCO2 (End-tidal gas analysis; Reperfusion 2 h) was 28 ± 3 mmHg. The EtCO2 (End-tidal gas analysis; Reperfusion 3 h) was 29 ± 3 mmHg, the EtHalogenated (End-tidal gas analysis; Baseline) was 0% and the EtHalogenated (End-tidal gas analysis; Infusion) was 0.37 ± 0.03 %. It also gave an EtHalogenated (End-tidal gas analysis; Ischemia 30 min) of 0.01 ± 0.00%, an EtHalogenated (End-tidal gas analysis; Memory) of 0.03 ± 0.01% and an EtHalogenated (End-tidal gas analysis; Reperfusion 1 h) of 0.00 ± 0.00%. The EtHalogenated (End-tidal gas analysis; Reperfusion 2 h) was 0.00 ± 0.00% and the EtHalogenated (End-tidal gas analysis; Reperfusion 3 h) was 0.00 ± 0.00%.
In the case of `FC(F)OC(F)(F)C(F)Cl` (stereo not drawn) [ENF, enflurane], the “Partition Coefficient ("λ")” value [1] is given as 1.9, the PaCO2 ([2]; Baseline) is given as 28 ± 2 mmHg and the PaO2 ([2]; Baseline) is given as 151 ± 16 mmHg. For the same compound, the PaCO2 ([2]; Infusion) was 31 ± 2 mmHg, the PaO2 ([2]; Infusion) was 130 ± 14 mmHg and the PaCO2 ([2]; Ischemia 30 min) was 32 ± 2 mmHg. For the same compound, the PaO2 ([2]; Ischemia 30 min) was 157 ± 22 mmHg, the PaCO2 ([2]; Memory) was 30 ± 2 mmHg and the PaO2 ([2]; Memory) was 149 ± 16 mmHg. The PaCO2 ([2]; Reperfusion 1 h) was 28 ± 2 mmHg, the PaO2 ([2]; Reperfusion 1 h) was 143 ± 11 mmHg and the PaCO2 ([2]; Reperfusion 2 h) was 27 ± 2 mmHg. The PaO2 ([2]; Reperfusion 2 h) was 135 ± 10 mmHg, the PaCO2 ([2]; Reperfusion 3 h) was 32 ± 3 mmHg and the PaO2 ([2]; Reperfusion 3 h) was 131 ± 12 mmHg. It also gave a pH ([2]; Baseline) of 7.47 ± 0.02, a pH ([2]; Infusion) of 7.41 ± 0.02 and a pH ([2]; Ischemia 30 min) of 7.37 ± 0.02. The pH ([2]; Memory) was 7.40 ± 0.02, the pH ([2]; Reperfusion 1 h) was 7.38 ± 0.02 and the pH ([2]; Reperfusion 2 h) was 7.40 ± 0.03. For the same compound, the pH ([2]; Reperfusion 3 h) was 7.42 ± 0.02, the “1 MAC-Equivalent Blood Concentration at 1 MAC ("x")” value [3] was 1.995 mM and the MAP ([4]; Baseline) was 78 ± 4 mmHg. The RPP ([4]; Baseline) was 22 ± 1.9 bpm × mmHg × 10^3, the HR ([4]; Infusion) was 240 ± 11 bpm and the MAP ([4]; Infusion) was 68 ± 3 mmHg. It also gave an RPP ([4]; Infusion) of 18.9 ± 1.5 bpm × mmHg × 10^3, an HR ([4]; Ischemia 30 min) of 213 ± 9 bpm and an MAP ([4]; Ischemia 30 min) of 59 ± 6 mmHg. For the same compound, the RPP ([4]; Ischemia 30 min) was 14.5 ± 1.7 bpm × mmHg × 10^3, the HR ([4]; Memory) was 231 ± 11 bpm and the MAP ([4]; Memory) was 70 ± 3 mmHg. The RPP ([4]; Memory) was 18.9 ± 1.4 bpm × mmHg × 10^3, the HR ([4]; Reperfusion 1 h) was 216 ± 7 bpm and the MAP ([4]; Reperfusion 1 h) was 65 ± 6 mmHg. The RPP ([4]; Reperfusion 1 h) was 15.8 ± 1.5 bpm × mmHg × 10^3, the HR ([4]; Reperfusion 2 h) was 214 ± 10 bpm and the MAP ([4]; Reperfusion 2 h) was 68 ± 7 mmHg. For the same compound, the RPP ([4]; Reperfusion 2 h) was 16.5 ± 1.6 bpm × mmHg × 10^3, the HR ([4]; Reperfusion 3 h) was 210 ± 7 bpm and the MAP ([4]; Reperfusion 3 h) was 75 ± 5 mmHg. It also gave an RPP ([4]; Reperfusion 3 h) of 17.6 ± 1.3 bpm × mmHg × 10^3, an HR [4, 5] of 248 ± 10 bpm and an EtCO2 (End-tidal gas analysis; Baseline) of 36 ± 2 mmHg. It also gave an EtCO2 (End-tidal gas analysis; Infusion) of 37 ± 2 mmHg, an EtCO2 (End-tidal gas analysis; Ischemia 30 min) of 33 ± 3 mmHg and an EtCO2 (End-tidal gas analysis; Memory) of 34 ± 2 mmHg. For the same compound, the EtCO2 (End-tidal gas analysis; Reperfusion 1 h) was 33 ± 3 mmHg, the EtCO2 (End-tidal gas analysis; Reperfusion 2 h) was 33 ± 3 mmHg and the EtCO2 (End-tidal gas analysis; Reperfusion 3 h) was 35 ± 3 mmHg. The EtHalogenated (End-tidal gas analysis; Baseline) was 0%, the EtHalogenated (End-tidal gas analysis; Infusion) was 0.27 ± 0.02% and the EtHalogenated (End-tidal gas analysis; Ischemia 30 min) was 0.00 ± 0.00%. It also gave an EtHalogenated (End-tidal gas analysis; Memory) of 0.02 ± 0.01%, an EtHalogenated (End-tidal gas analysis; Reperfusion 1 h) of 0.00 ± 0.00% and an EtHalogenated (End-tidal gas analysis; Reperfusion 2 h) of 0.00 ± 0.00%. It also gave an EtHalogenated (End-tidal gas analysis; Reperfusion 3 h) of 0.00 ± 0.00%.
